From ChEMBL document CHEMBL1140913, “Discovery and structure-activity relationships of trisubstituted pyrimidines/pyridines as novel calcium-sensing receptor antagonists” (J Med Chem, 2009)
Converted amounts (≈) assume the structure as drawn.

System: not listed separately
Test: Aqueous solubility at pH 6.5
Assay type: physicochemical

| solubility | Structure (SMILES) |
| --- | --- |
| < 1 µg/mL | CCN(Cc1ccccc1)c1ncc(C(=O)NCCOc2ccccc2)c(-c2cc(OC)c(OC)c(OC)c2)n1 |
| 11 µg/mL (≈ 20.8 µM) | COc1ccc(-c2nc(N[C@H](CO)Cc3ccccc3)ccc2C(=O)NCCOc2ccccc2)c(OC)n1 |

System: not listed separately
Test: Aqueous solubility at pH 4.5
Assay type: physicochemical

| solubility | Structure (SMILES) |
| --- | --- |
| < 1 µg/mL | CCN(Cc1ccccc1)c1ncc(C(=O)NCCOc2ccccc2)c(-c2cc(OC)c(OC)c(OC)c2)n1 |
| 36 µg/mL (≈ 68.1 µM) | COc1ccc(-c2nc(N[C@H](CO)Cc3ccccc3)ccc2C(=O)NCCOc2ccccc2)c(OC)n1 |

Target: T1, Extracellular calcium-sensing receptor (Homo sapiens, UniProt P41180)
T1 sequence (P41180 whole entry): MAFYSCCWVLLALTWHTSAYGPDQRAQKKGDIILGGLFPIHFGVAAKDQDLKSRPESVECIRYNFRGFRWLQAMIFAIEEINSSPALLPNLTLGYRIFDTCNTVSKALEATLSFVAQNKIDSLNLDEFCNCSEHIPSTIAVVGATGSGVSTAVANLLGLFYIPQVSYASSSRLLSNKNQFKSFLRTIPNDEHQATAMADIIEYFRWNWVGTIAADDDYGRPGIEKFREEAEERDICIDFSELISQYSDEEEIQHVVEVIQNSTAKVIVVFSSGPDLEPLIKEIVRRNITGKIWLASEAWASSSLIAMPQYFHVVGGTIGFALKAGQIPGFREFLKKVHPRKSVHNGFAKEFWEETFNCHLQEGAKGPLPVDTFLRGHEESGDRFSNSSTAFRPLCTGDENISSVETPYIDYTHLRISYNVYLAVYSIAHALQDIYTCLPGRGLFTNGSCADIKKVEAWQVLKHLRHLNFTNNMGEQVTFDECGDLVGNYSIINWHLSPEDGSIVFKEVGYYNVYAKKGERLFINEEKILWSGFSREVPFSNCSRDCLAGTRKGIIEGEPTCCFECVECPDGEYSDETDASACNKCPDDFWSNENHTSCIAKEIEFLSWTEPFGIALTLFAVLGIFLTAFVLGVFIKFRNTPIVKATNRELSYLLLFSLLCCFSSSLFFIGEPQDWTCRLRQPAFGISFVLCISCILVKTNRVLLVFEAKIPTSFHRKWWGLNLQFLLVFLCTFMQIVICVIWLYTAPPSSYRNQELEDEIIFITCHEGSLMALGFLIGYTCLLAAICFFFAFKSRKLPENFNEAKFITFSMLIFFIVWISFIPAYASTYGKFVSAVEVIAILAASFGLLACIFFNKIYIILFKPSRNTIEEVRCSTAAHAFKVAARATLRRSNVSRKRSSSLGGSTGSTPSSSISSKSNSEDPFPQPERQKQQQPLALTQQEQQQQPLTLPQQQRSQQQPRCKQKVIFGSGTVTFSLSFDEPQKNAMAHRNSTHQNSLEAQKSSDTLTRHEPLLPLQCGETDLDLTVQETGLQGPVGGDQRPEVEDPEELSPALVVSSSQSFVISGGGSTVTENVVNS
Test: Antagonist activity at calcium-sensing receptor expressed in HEK293 cells by FLIPR assay
Assay type: functional, cell-based

| Structure (SMILES) | IC50 |
| --- | --- |
| COc1cc(-c2nc(NCc3ccccc3C)ncc2C(=O)NCCOc2ccccc2)cc(OC)c1OC | 10000 nM |
| COc1cc(-c2nc(NCc3ccccc3Cl)ncc2C(=O)NCCOc2ccccc2)cc(OC)c1OC | 4900 nM |
| COc1cc(-c2nc(NCCC(C)C)ncc2C(=O)NCCOc2ccccc2)cc(OC)c1OC | 2200 nM |
| COc1cc(OC)cc(-c2nc(N(C)Cc3ccccc3)ncc2C(=O)NCCOc2ccccc2)c1 | > 30000 nM |
| CCN(Cc1ccccc1)c1ncc(C(=O)NCCCc2ccccc2)c(-c2cc(OC)c(OC)c(OC)c2)n1 | 2100 nM |
| CCN(Cc1ccccc1)c1ncc(C(=O)NCCc2ccccc2)c(-c2cc(OC)c(OC)c(OC)c2)n1 | > 30000 nM |
| COc1cc(-c2nc(N[C@@H](CO)Cc3ccccc3)ncc2C(=O)NCCOc2ccccc2)cc(OC)c1OC | > 30000 nM |
| CN(Cc1ccccc1)c1ncc(C(=O)NCCOc2ccccc2)c(-c2ccc(C(F)(F)F)cc2)n1 | 18900 nM |
| COc1ccc(-c2nc(N(C)Cc3ccccc3)ncc2C(=O)NCCOc2ccccc2)cc1 | > 30000 nM |
| COc1cccc(-c2nc(N(C)Cc3ccccc3)ncc2C(=O)NCCOc2ccccc2)c1 | > 30000 nM |
| COc1ccccc1-c1nc(N(C)Cc2ccccc2)ncc1C(=O)NCCOc1ccccc1 | > 30000 nM |
| CCN(Cc1ccccc1)c1ncc(C(=O)NCCOc2ccccc2)c(C2CCCCC2)n1 | > 30000 nM |
| CCN(Cc1ccccc1)c1ncc(C(=O)NCCOc2ccccc2)c(-c2ccccc2)n1 | > 30000 nM |
| COc1ccc(-c2nc(N(C)Cc3ccccc3)ncc2C(=O)NCCOc2ccccc2)cc1OC | 6900 nM |
| COc1cc(-c2nc(NCc3ccccn3)ncc2C(=O)NCCOc2ccccc2)cc(OC)c1OC | > 30000 nM |
| COc1cc(-c2nc(NCCc3cccnc3)ncc2C(=O)NCCOc2ccccc2)cc(OC)c1OC | > 30000 nM |
| COc1cc(-c2nc(NCCc3ccccn3)ncc2C(=O)NCCOc2ccccc2)cc(OC)c1OC | > 30000 nM |
| COc1cc(-c2nc(N(C)CCc3ccccc3)ncc2C(=O)NCCOc2ccccc2)cc(OC)c1OC | 1500 nM |
| COc1cc(-c2nc(N[C@H](CO)Cc3ccccc3)ncc2C(=O)NCCOc2ccccc2)cc(OC)c1OC | 150 nM |
| CCN(Cc1ccccc1)c1ncc(C(=O)NCCCCc2ccccc2)c(-c2cc(OC)c(OC)c(OC)c2)n1 | 1800 nM |
| COc1cc(-c2nc(NCc3cccnc3)ncc2C(=O)NCCOc2ccccc2)cc(OC)c1OC | > 30000 nM |
| COc1ccc(CNc2ncc(C(=O)NCCOc3ccccc3)c(-c3cc(OC)c(OC)c(OC)c3)n2)cc1 | 3100 nM |
| COc1ccc(CCNc2ncc(C(=O)NCCOc3ccccc3)c(-c3cc(OC)c(OC)c(OC)c3)n2)cc1 | 2800 nM |

The next lines start with the values.

| IC50 | Structure (SMILES) |
| --- | --- |
| 130 nM | COc1cc(-c2nc(NCc3ccc4c(c3)OCO4)ccc2C(=O)NCCOc2ccccc2)cc(OC)c1OC |
| 730 nM | COc1cc(-c2nc(NCc3ccccc3)ncc2C(=O)NCCOc2ccccc2)cc(OC)c1OC |
| 150 nM | COc1ccc(-c2nc(NCc3ccc4c(c3)OCO4)ncc2C(=O)NC(C)Cc2ccc(Cl)cc2)c(OC)n1 (stereo not drawn) |
| 154 nM | CCN(Cc1ccccc1)c1ccc(C(=O)NCCOc2ccccc2)c(-c2cc(OC)c(OC)c(OC)c2)n1 |
| 1050 nM | CCN(Cc1ccccc1)c1ccc(C(=O)NCCOc2ccccc2)c(-c2ccc(OC)nc2OC)n1 |
| 76 nM | COc1cc(-c2nc(N[C@H](CO)Cc3ccccc3)ccc2C(=O)NCCOc2ccccc2)cc(OC)c1OC |
| 60 nM | COc1ccc(-c2nc(NCc3ccc4c(c3)OCO4)ccc2C(=O)NCCOc2ccccc2)c(OC)n1 |
| 360 nM | COc1ccc(-c2nc(NCc3ccc4c(c3)OCO4)ncc2C(=O)N2CCc3ccccc3C2)c(OC)n1 |
| 220 nM | COc1ccc(-c2nc(NCc3ccc4c(c3)OCO4)ncc2C(=O)NCCOc2ccccc2)c(OC)n1 |
| 197 nM | COc1ccc(-c2nc(NCc3cccc(Cl)c3)ccc2C(=O)NCCOc2ccccc2)c(OC)n1 |
| 360 nM | CCN(Cc1ccccc1)c1ncc(C(=O)NCCOc2ccccc2)c(-c2ccc(OC)nc2OC)n1 |
| 340 nM | COc1cccc(CNc2ncc(C(=O)NCCOc3ccccc3)c(-c3cc(OC)c(OC)c(OC)c3)n2)c1 |
| 70 nM | COc1cc(-c2nc(NCc3cccc(Cl)c3)ncc2C(=O)NCCOc2ccccc2)cc(OC)c1OC |
| 1000 nM | COc1cccc(CCNc2ncc(C(=O)NCCOc3ccccc3)c(-c3cc(OC)c(OC)c(OC)c3)n2)c1 |
| 340 nM | COc1ccccc1CCNc1ncc(C(=O)NCCOc2ccccc2)c(-c2cc(OC)c(OC)c(OC)c2)n1 |
| 400 nM | COc1cc(-c2nc(NCCc3ccccc3)ncc2C(=O)NCCOc2ccccc2)cc(OC)c1OC |
| 200 nM | CCN(Cc1ccccc1)c1ncc(C(=O)NCCOc2ccccc2)c(-c2cc(OC)c(OC)c(OC)c2)n1 |
| 150 nM | COc1cc(-c2nc(NCc3ccc4c(c3)OCO4)ncc2C(=O)NCCOc2ccccc2)cc(OC)c1OC |
| 470 nM | COc1cc(-c2nc(N(C)Cc3ccccc3)ncc2C(=O)NCCOc2ccccc2)cc(OC)c1OC |
| 162 nM | COc1cc(-c2nc(NCc3cccc(Cl)c3)ccc2C(=O)NCCOc2ccccc2)cc(OC)c1OC |
| 140 nM | COc1ccc(-c2nc(N[C@H](CO)Cc3ccccc3)ccc2C(=O)NCCOc2ccccc2)c(OC)n1 |
